Values of other authors as cited in patent US20070093966A1, “Drug candidate selection by hydrogen exchange characterization of ligand-induced receptor conformation” (ExSAR CORPORATION, priority 2004, published 2007).

Test system: endogenous gene CAP in 3T3-L1 adipocytes
Details: Camp et al.

Cc1c(C)c2c(c(C)c1O)CCC(C)(COc1ccc(CC3SC(=O)NC3=O)cc1)O2 (stereo not shown) [troglitazone]
agonist profile, induction of the endogenous gene CAP: full agonist
